What was measured:
YAP-TEAD interaction = experiment: SK-HEP-1 reporter assay (8xTEAD responsive elements driving NanoLuc luciferase); format: cell-based
How it was run: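 SK-HEP-1 cells stably carrying 8×TEAD-driven NanoLuc treated in duplicate, 10-point dose from 30 μM final, 0.3% DMSO, 24 h at 37° C. Luminescence after NanoGlo lysis/substrate addition; IC50 calculated from dose response.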

SW620 Yap KO cells = experiment: Viability assay in SW620 Yap KO (Yap independent) cells, CyQuant; format: cell-based
How it was run: (§1)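 Seeded cells were dosed 24 h later in duplicate (10-point, 1:3 dilutions, top 30 μM final, 0.3% DMSO) and incubated 96 h at 37 °C. Viability was read with CyQUANT DNA dye after 1 h, fluorescence bottom read. NCI-H226 in RPMI 1640 medium; SW620 YAP/TAZ CRISPR knockout in DMEM/F-12 medium.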

NCI-H226 cells = experiment: Viability assay in NCI-H226 (Yap-dependent) cells, CyQuant; format: cell-based, human; conditions: class symbols
How it was run: as §1

[1] = Homo sapiens, SK-HEP1, SK-HEP-1 reporter assay, class symbols
[2] = Homo sapiens, SW-620, 96 h, class symbols
[3] = Homo sapiens, SW-620, 96 h, n.d. = value not detectable below threshold given in parentheses, ND = not determinable within the entire range
[4] = Homo sapiens, SW-620, 96 h, n.d. = value not detectable below threshold given in parentheses

SMILES	melting point [°C]	IC50 (YAP-TEAD interaction; [1]) [nM]	IC50 (NCI-H226 cells; Homo sapiens, NCI-H226, 96 h) [nM]	further results
C=CC(=O)Nc1ccc2c(c1)c1cn(C)nc1n2-c1ccc(C(F)(F)F)cc1 [Example 20, N-[2-methyl-8-[4-(trifluoromethyl)phenyl]pyrazolo[3,4-b]indol-5-yl]prop-2-enamide]	223 to 224	–	–	–
Cn1cc2c(n1)c1cc(C#N)ccc1n2-c1ccc(C(F)(F)F)cc1 [Example 19, 2-methyl-4-[4-(trifluoromethyl)phenyl]pyrazolo [4,3-b]indole-7-carbonitrile]	208 to 210	–	–	–
Cn1cc2c3cc(C(=O)O[C@@H]4O[C@H](C(=O)O)[C@@H](O)[C@H](O)[C@H]4O)ccc3n(-c3ccc(C(F)(F)F)cc3)c2n1 [Example 30, (2S,3S,4S,5R,6S)-3,4,5-trihydroxy-6-{2-methyl-8-[4-(trifluoromethyl)phenyl]-2H,8H-pyrazolo[3,4-b]indole-5-carbonyloxy}oxane-2-carboxylic acid]	110 to 111	–	–	–
Cn1cc2c3cc(C(=O)NC4CC4)ccc3n(-c3ccc(C(F)(F)F)nc3)c2n1 [Example 27, N-cyclopropyl-2-methyl-8-[6-(trifluoromethyl)pyridin-3-yl]-2H,8H-pyrazolo[3,4-b]indole-5-carboxamide]	300	–	–	–
Cn1cc2c3cc(CNC(=O)CCl)ccc3n(-c3ccc(C(F)(F)F)cc3)c2n1 [Example 24, 2-chloro-N-([2-methyl-8-[4-(trifluoromethyl)phenyl]pyrazolo[3,4-b]indol-5-yl]methyl)acetamide]	221 to 222	100 to 10000	–	IC50 (SW620 Yap KO cells; [2]): 1000 to 10000 nM; IC50 (NCI-H226 cells; Homo sapiens, 96 h): 100 to 1000 nM
Cn1cc2c3cc(C(=O)NCc4ccncc4)ccc3n(-c3ccc(C(F)(F)F)cc3)c2n1 [Example 28, 2-methyl-N-[(pyridin-4-yl)methyl]-8-[4-(trifluoromethyl)phenyl]-2H, 8H-pyrazolo[3,4-b]indole-5-carboxamide]	181 to 185	–	–	–
CCOc1ccc(-n2c3ccc(C(=O)O)cc3c3cn(C)nc32)cc1 [Example 15, 8-(4-Ethoxyphenyl)-2-methyl-2H,8H-pyrazolo[3,4-b]indole-5-carboxylic acid]	179 to 181	–	–	–
Cc1nc2c(s1)c1cc(C(=O)O)ccc1n2-c1ccc(C(F)(F)F)cc1 [Example 25, 2-methyl-4-[4-(trifluoromethyl)phenyl]-[1,3]thiazolo[4,5-b]indole-7-carboxylic acid]	169 to 171	–	–	–
C[C@@H](CO)NS(=O)(=O)c1ccc2c(c1)c1nnn(C)c1n2-c1ccc(C(F)(F)F)cc1 [Example 38, N-[(2S)-1-hydroxypropan-2-yl]-3-methyl-4-[4-(trifluoromethyl)phenyl]-3H,4H-[1,2,3]triazolo[4,5-b]indole-7-sulfonamide]	232 to 234	10 to 100	> 10000	IC50 (SW620 Yap KO cells; [2]): > 30000 nM
C=CC(=O)NCc1ccc2c(c1)c1cn(C)nc1n2-c1ccc(C(F)(F)F)cc1 [Example 21, N-([2-methyl-8-[4-(trifluoromethyl)phenyl]pyrazolo [3,4-b]indol-5-yl]methyl)prop-2-enamide]	185 to 187	–	–	–
COC(=O)c1ccc2c(c1)c1nn(C)cc1n2-c1ccc(C(F)(F)F)cc1 [Example 16, Methyl 2-methyl-4-[4-(trifluoromethyl)phenyl]pyrazolo[4,3-b]indole-7-carboxylate]	111 to 112	–	–	–
Cc1snc2c1c1cc(C(=O)N[C@@H](C)CO)ccc1n2-c1ccc(C(F)(F)F)cc1 [Example C70, N-[(2S)-1-hydroxypropan-2-yl]-3-methyl-8-[4-(trifluoromethyl)phenyl]-8H-[1,2]thiazolo [3,4-b]indole-5-carboxamide]	–	10 to 100	1 to 100	IC50 (SW620 Yap KO cells; [3]): > 3200 nM
CNC(=O)c1ccc2c(c1)c1cn(C)nc1n2-c1ccc(C(F)(F)F)cn1 [Example C147, N,2-dimethyl-8-[5-(trifluoromethyl)pyridin-2-yl]-2H,8H-pyrazolo[3,4-b]indole-5-carboxamide]	–	10 to 100	1 to 100	IC50 (SW620 Yap KO cells; [3]): > 30000 nM
Cn1cc2c3cc(CO)ccc3n(-c3ccc(C(F)(F)F)cc3)c2n1 [Example C182, {2-methyl-8-[4-(trifluoromethyl)phenyl]-2H,8H-pyrazolo[3,4-b]indol-5-yl}methanol]	–	10 to 100	100 to 1000	IC50 (SW620 Yap KO cells; [4]): > 30000 nM
Cc1snc2c1c1cc(C(=O)N[C@@H](CO)C3CCC3)ccc1n2-c1ccc(C(F)(F)F)cc1 [Example C91, N-[(1R)-1-cyclobutyl-2-hydroxyethyl]-3-methyl-8-[4-(trifluoromethyl)phenyl]-8H-[1,2]thiazolo[3,4-b]indole-5-carboxamide]	–	10 to 100	1 to 100	IC50 (SW620 Yap KO cells; [3]): > 3200 nM
CNC(=O)c1ccc2c(c1)c1c(C)snc1n2-c1ccc(C(F)(F)F)cc1 [Example C51, N,3-dimethyl-8-[4-(trifluoromethyl)phenyl]-8H-[1,2]thiazolo[3,4-b]indole-5-carboxamide]	–	10 to 100	1 to 100	IC50 (SW620 Yap KO cells; [2]): 1000 to 10000 nM
CC(NC(=O)c1ccc2c(c1)c1cn(C)nc1n2-c1ccc(C(F)(F)F)cc1)c1ccn[nH]1 (single isomer, unassigned) [Example C76]	–	–	–	IC50 (YAP-TEAD interaction; SK-HEP-1 reporter assay, class symbols): 100 to 10000 nM; IC50 (SW620 Yap KO cells; 96 h, n.d. = value not detectable below threshold given in parentheses, ND = not determinable within the entire range): > 3200 nM; IC50 (NCI-H226 cells; 96 h): 1 to 100 nM
Cc1c2c3cc(C(=O)N[C@@H](CO)c4ccccn4)ccc3n(-c3ccc(C(F)(F)F)cc3)c2nn1C [Example C99, N-[(1R)-2-hydroxy-1-(pyridin-2-yl)ethyl]-2,3-dimethyl-8-[4-(trifluoromethyl)phenyl]-2H,8H-pyrazolo[3,4-b]indole-5-carboxamide]	–	10 to 100	1 to 100	IC50 (SW620 Yap KO cells; [2]): 10000 to 30000 nM
CNC(=O)c1cnc2c(c1)c1cn(C)nc1n2-c1ccc(C(F)(F)F)cc1 [Example C227, N,4-dimethyl-7-[4-(trifluoromethyl)-phenyl]-4,5,7,9-tetraazatricyclo [6.4.0.0^2,6]dodeca-1(8),2,5,9,11-pentaene-11-carboxamide]	–	10 to 100	1 to 100	IC50 (SW620 Yap KO cells; [4]): > 30000 nM
C[C@@H](CCN(C)C(=O)c1ccc2c(c1)c1cn(C)nc1n2-c1ccc(C(F)(F)F)cc1)NC(=O)c1ccc2c(c1)c1cn(C)nc1n2-c1ccc(C(F)(F)F)cc1 [Example C48, N,2-dimethyl-N-[(3S)-3-({2-methyl-8-[4-(trifluoromethyl)phenyl]-2H,8H-pyrazolo[3,4-b]indol-5-yl}formamido)butyl]-8-[4-(trifluoromethyl)phenyl]-2H,8H-pyrazolo[3,4-b]indole-5-carboxamide]	–	100 to 10000	1000 to 10000	IC50 (SW620 Yap KO cells; [3]): > 3200 nM
C[C@@H](NC(=O)c1ccc2c(c1)c1cn(C)nc1n2-c1ccc(C(F)(F)F)cc1)c1ccncc1 [Example C122, 2-methyl-N-[(1R)-1-(pyridin-4-yl)ethyl]-8-[4-(trifluoromethyl)phenyl]-2H,8H-pyrazolo[3,4-b]indole-5-carboxamide]	–	10 to 100	100 to 1000	IC50 (SW620 Yap KO cells; [3]): > 30000 nM
Cn1nc2c3cc(C(=O)N[C@@H](CO)C(F)(F)F)ccc3n(-c3ccc(C(F)(F)F)cc3)c2n1 [Example C86, 2-methyl-N-[(2S)-1,1,1-trifluoro-3-hydroxypropan-2-yl]-4-[4-(trifluoromethyl)phenyl]-2H,4H-[1,2,3]triazolo [4,5-b]indole-7-carboxamide]	–	10 to 100	1 to 100	IC50 (SW620 Yap KO cells; [3]): > 30000 nM
COCC[C@@H](CO)NC(=O)c1ccc2c(c1)c1c(C)snc1n2-c1ccc(C(F)(F)F)cc1 (single isomer, unassigned) [Example C89]	–	10 to 100	1 to 100	IC50 (SW620 Yap KO cells; [3]): > 30000 nM
Cn1nc2c3cc(C(=O)NC[C@@H](O)C(F)(F)F)ccc3n(-c3ccc(C(F)(F)F)cc3)c2n1 [Example C160, 2-methyl-N-[(2R)-3,3,3-trifluoro-2-hydroxypropyl]-4-[4-(trifluoromethyl)phenyl]-2H,4H-[1,2,3]triazolo[4,5-b]indole-7-carboxamide]	–	10 to 100	1 to 100	IC50 (SW620 Yap KO cells; [3]): > 30000 nM
Cn1cnc2c1c1cc(C=O)ccc1n2-c1ccc(C(F)(F)F)cc1 [Example C174, 1-methyl-4-[4-(trifluoromethyl)phenyl]-1H,4H-imidazo[4,5-b]indole-7-carbaldehyde]	–	10 to 100	1 to 100	IC50 (SW620 Yap KO cells; [4]): > 30000 nM
Cn1nc2c3cc(C(=O)N=[S@](=O)(CCCO)Cc4cccnc4)ccc3n(-c3ccc(C(F)(F)F)cc3)c2n1 (single isomer, unassigned) [Example C202]	–	–	100 to 1000	IC50 (YAP-TEAD interaction; Homo sapiens, SK-HEP1, SK-HEP-1 reporter assay, n.d. = value not detectable below threshold given in parentheses): > 300 nM; IC50 (SW620 Yap KO cells; [4]): > 3000 nM
Cn1cc2c3cc(C(=O)N=S(C)(C)=O)ccc3n(-c3ccc(C(F)(F)F)c(F)c3)c2n1 [Example C168, N-[dimethyl(oxo)-lambda6-sulfanylidene]-8-[3-fluoro-4-(trifluoromethyl)phenyl]-2-methyl-2H,8H-pyrazolo[3,4-b]indole-5-carboxamide]	–	10 to 100	1 to 100	IC50 (SW620 Yap KO cells; [4]): > 3200 nM
